# Reference: patent US12215234B2, “Process for the purification of methylene blue” (RK Pharma Solutions LLC, priority 2019, dated 2025)
# “And” between values parts separate entries of the source, which are not always exact repeats. Equal values may be shown once.
# Legend:
# Type in all cases: physicochemical
# [1] = Stability study of methylene blue at about 20-25° C. (25/60), six months; design: Highest Unknown / Total impurities / Azure B / Azure C: unit not given here; conditions: stability at 25° C., Trial 1-3
# Experimental: (§1) Methylene blue product obtained by this process is then loaded for stability at about 20-25° C. and at about 40° C. Purity and metal content of Methylene blue is tested for up to six months.
# [2] = Stability study of methylene blue at about 40° C. (40/75), six months; conditions: stability at 40° C., Trial 1-3
# Experimental: as §1
# [3] = pH of formulation containing methylene blue made by the prior-art process; conditions: methylene blue by process of Fundamental Processes of Dye Chemistry, isolated in the range of 3.0-4.5; pH increases
# Source text: Desired pH for the methylene blue formulation as per USP is in between 3.0-4.5.
# Another area of concern is pH of formulated methylene blue. USP mentions that pH of methylene blue formulation should be in between about 3.0 to about 4.5. In formulation, pH of Methylene blue solution tends to increase drastically when the pH of the active pharmaceutical ingredient (API) is kept in between about 3.0 to about 4.5 as per prior art process. To overcome such a problem, the reaction mass pH is preferably kept less than about 2 and more preferably pH of less than about 1. Suitable acids for the adjustment of pH to below about 1 includes, but is not limited to, hydrochloric acid.
compound,measurement,setting,value
"CN(C)c1ccc2nc3ccc(N(C)C)cc3[s+]c2c1 [Methylene blue, 3,7-bis(dimethylamino)phenothiazin-5-ylium chloride]",Azure B,"[1]; impurity, 6M 25/60",2.37 and 2.2 and 2.17
same,Azure C,"[1]; impurity, 6M 25/60",0.01
same,Highest Unknown,"[1]; impurity, 6M 25/60",0.04 and 0.06 and 0.08
same,Metal Content Mn,[1]; 6M 25/60,0.68 ppm and 0.61 ppm and 0.48 ppm
same,Total impurities,[1]; 6M 25/60,2.46 and 2.4 and 2.44
same,Total metal content,"[1]; 6M 25/60, sum of Al, Cr, Cu, Mn, Zn",76.51 ppm and 75.6 ppm and 57.41 ppm
same,Purity,[1]; profile 6M 25/60,97.54 and 97.6 and 97.56
same,Azure B,"[2]; impurity, 6M 40/75",2.41 and 2.26
same,Azure C,"[2]; impurity, 6M 40/75",0.01
same,Metal Content Mn,[2]; 6M 40/75,0.49 ppm and 0.51 ppm
same,Total impurities,[2]; 6M 40/75,2.5 and 2.46 and 2.52
same,Total metal content,"[2]; 6M 40/75, sum of Al, Cr, Cu, Mn, Zn",74.97 ppm and 62.91 ppm and 62.48 ppm
same,Purity,[2]; profile 6M 40/75,97.5 and 97.54 and 97.48
same,pH of the formulation containing methylene blue,[3],above 4.5
